No end group written: not given here.
How the values were obtained:
HCMV strain AD169 = assay: HCMV plaque formation assay in MRC-5 cells; settings: for inhibition of HCMV plaque formation as compared to the virus control experiment: 10 micrograms per ml, 7-10 days
HUVEC = assay: Endothelial tube formation assay; assay type: cell-based, human; settings: 10 micrograms per ml, 20 hours
From the text: Positive control was vehicle only.

Interleukin-5 (IL-5) = assay: Th1/Th2 cytokine profiling assay, IL-5; settings: murine spleen cells, 10 micrograms per ml
From the text: (§1) The Balb/c mice (originated in 1923, it is a popular strain and is used in many different research disciplines. Also classified as an inbred from the production of 20 or more successive brother-sister matings, the Balb/c mouse is albino and small in size) were immunized on Days 1, 15, and 29 with Ovalbumin (Ovalbumin is the main protein found in egg white, commonly used to stimulate an immunological reaction in test animals) in PBS (5 micrograms/injection). On day 50, spleens of the mice were harvested (3 weeks after last boost with Ovalbumin). […] Thereafter, additional Ovalbumin was added to the cells at 10 micrograms/ml for in vitro restimulation of the cells. 72 hours later, cell supernatants were harvested and assayed using the Becton Dickinson Mouse Th1/Th2 Cytokine CBA Kit. This kit can be used to measure Interleukin-2 (IL-2), Interleukin-4 (IL-4), Interleukin-5 (IL-5), Interferon-γ (IFN-γ), and Tumor Necrosis Factor-α (TNF-α) protein levels in a single sample. The kit performance has been optimized for analysis of physiologically relevant concentrations (μg/ml levels) of specific cytokine proteins in tissue culture supernatants and serum samples.

RAW 264.7 cells = assay: Phagocytosis assay (Fluorescein-labeled Escherichia coli, flow cytometry); assay type: cell-based, Mouse; settings: 10 micrograms per ml, Fluorescein-labeled E. coli
Method: RAW 264.7 (Mouse leukaemic monocyte macrophage cell line) cells were obtained from ATCC and grown in RPMI 1640 medium containing 10% FBS. […] After the cells were incubated for additional 60 min at 37° C. and allowed to ingest the Fluorescein-labeled Escherichia coli bacteria, cells were fixed with 1% paraformaldehyde. The samples were then analyzed by flow cytometry to determine the amount of phagocytosis as a function of brightness (the greater the phagocytic activity, the more fluorescence in the macrophage population). Data are reported as % positive and the mean fluorescence intensity (MFI) of positively stained cells.

Interleukin-2 (IL-2) = assay: Th1/Th2 cytokine profiling assay, IL-2; settings: murine spleen cells, 10 micrograms per ml
From the text: as §1

Interferon-γ (IFN-γ) = assay: Th1/Th2 cytokine profiling assay, IFN-γ; settings: murine spleen cells, 10 micrograms per ml; for induction of the production of IFN-γ: Ovalbumin restimulation, 72 hours
From the text: (§2) The Balb/c mice (originated in 1923, it is a popular strain and is used in many different research disciplines. Also classified as an inbred from the production of 20 or more successive brother-sister matings, the Balb/c mouse is albino and small in size) were immunized on Days 1, 15, and 29 with Ovalbumin (Ovalbumin is the main protein found in egg white, commonly used to stimulate an immunological reaction in test animals) in PBS (5 micrograms/injection). On day 50, spleens of the mice were harvested (3 weeks after last boost with Ovalbumin). […] Thereafter, additional Ovalbumin was added to the cells at 10 micrograms/ml for in vitro restimulation of the cells. 72 hours later, cell supernatants were harvested and assayed using the Becton Dickinson Mouse Th1/Th2 Cytokine CBA Kit. This kit can be used to measure Interleukin-2 (IL-2), Interleukin-4 (IL-4), Interleukin-5 (IL-5), Interferon-γ (IFN-γ), and Tumor Necrosis Factor-α (TNF-α) protein levels in a single sample.

[1] = test system: Tumor Necrosis Factor-α (TNF-α); assay: Th1/Th2 cytokine profiling assay, TNF-α; settings: murine spleen cells, 10 micrograms per ml; for change of the production of TNF-alpha: Ovalbumin restimulation, 72 hours
From the text: as §2

[2] = test system: Primary Human endothelial cells (HUVEC); assay: Endothelial cell migration assay; assay type: cell-based; settings: 10 micrograms per ml, 22 hours
Method: Thereafter, designated concentration of testing peptides—10 micrograms per ml—was added in duplicate wells.

[3] = test system: hepatitis B virus (HBV) ayw strain; assay: HBV assay in HepG2-2.2.15 cells (secreted HBV DNA, TaqMan PCR); assay type: cell-based; settings: HepG2-2.2.15 liver cells, 10 micrograms per ml, six days
Human A549 cells = assay: Apoptosis prevention assay (C2 ceramide, Annexin-5); assay type: cell-based; settings: 10 micrograms per ml pretreatment 30 min
Interleukin-4 (IL-4) = assay: Th1/Th2 cytokine profiling assay, IL-4; settings: murine spleen cells, 10 micrograms per ml
From the text: as §1

HIV-1IIIB = assay: HIV-1 antiviral assay in CEM-SS cells (MTS readout); settings: positive controls
[4] = Ovalbumin restimulation, 72 hours

| Molecule | inhibition of HCMV plaque formation as compared to the virus control experiment (HCMV strain AD169) [%] | IL-5 spleen cells; TH2 response (% of control) (Interleukin-5 (IL-5)) | induction of phagocytosis as compared to the control experiment (RAW 264.7 cells) [%] | IL-2 spleen cells (% of control) (Interleukin-2 (IL-2)) | IFNγ spleen cells; TH1 response (% of control) (Interferon-γ (IFN-γ)) | induction of the production of IFN-γ (Interferon-γ (IFN-γ)) [%] | TNF-a spleen cells; TH1 response (% of control) [1] | change of the production of TNF-alpha [1] | inhibition of HBV replication as compared to the virus control infection [3] | reduction of the ceramide-induced apoptosis on human lung cells (Human A549 cells) [%] | IL-4 spleen cells; TH2 response (% of control) (Interleukin-4 (IL-4)) | antiviral activity of positive control compounds (HIV-1IIIB) | other results |
| --- | --- | --- | --- | --- | --- | --- | --- | --- | --- | --- | --- | --- | --- |
| Met-Ala-Pro-Arg-Gly-Phe-Ser-Cys-Leu-Leu-Leu-Leu-Thr-Ser-Glu-Ile-Asp-Leu-Pro-Val-Lys-Arg-Arg-Ala-OH (MAPRGFSCLLLLTSEIDLPVKRRA-OH) [peptide 1] | 3.2 | 63.5 % of control | 94.3 | 50.6 % of control | 122.3 % of control | 22.3 | 104.2 % of control | did not significantly change | 3.9% | 10.7 | 75.1 % of control | – | induction of the tube formation of human endothelial cells (HUVEC): 23%; decrease of the production of IL-5 (Interleukin-5 (IL-5); [4]): 36.5%; decrease of the production of IL-2 (Interleukin-2 (IL-2); [4]): 49.4%; inhibition of the migration of human endothelial cells [2]: 3%; change of the production of IL-4 (Interleukin-4 (IL-4); [4]): did not significantly change |
| CC(C)(C)NC(=O)[C@@H]1CN(Cc2cccnc2)CCN1C[C@@H](O)C[C@@H](Cc1ccccc1)C(=O)N[C@H]1c2ccccc2C[C@H]1O [indinavir] | – | – | – | – | – | – | – | – | – | – | – | expected levels of antiviral activity | – |
| Tyr-Gly-Gly-Phe-Leu-Arg-Lys-Tyr-Pro-Lys-OH (YGGFLRKYPK-OH) [peptide 2] | 6.9 | 67.5 % of control | 54.3 | 141.5 % of control | 130.3 % of control | 30.3 | 101.0 % of control | did not significantly change | no effect | 17.9 | 170.6 % of control | – | inhibition of the tube formation of human endothelial cells (HUVEC): 5%; change of the production of IL-5 (Interleukin-5 (IL-5); [4]): did not significantly change; induction of the production of IL-2 (Interleukin-2 (IL-2); [4]): 41.5%; induction of the migration of human endothelial cells [2]: 11%; induction of the production of IL-4 (Interleukin-4 (IL-4); [4]): 70.6% |
| Cc1cn([C@H]2C[C@H](N=[N+]=[N-])[C@@H](CO)O2)c(=O)[nH]c1=O [AZT] | – | – | – | – | – | – | – | – | – | – | – | expected levels of antiviral activity | – |
| Nc1nc(O)c2ncn(COC(CO)CO)c2n1 [Ganciclovir, reference compound] | – | – | – | – | – | – | – | – | – | – | – | – | antiviral activity of positive control compound (HCMV strain AD169; HCMV AD169, positive control): expected levels of antiviral activity |
